Like-named read-outs stand apart in the source and are kept apart here.
Tests used:
Clint determination [1] = type: in vitro ADME; conditions: rat, microsomes, pH 7.4, rat microsomes, read-out: Clint (μL/min/mg) Rat
Clint determination [2] = type: in vitro ADME; conditions: human, microsomes, pH 7.4, human microsomes, read-out: Clint (μL/min/mg) Human
Cl- channel (GABA-gated) = assay: CEREP binding panel; conditions: 10 μM, antagonist radioligand
ARG = target: T1, ARG (Homo sapiens, UniProt P42684); assay: Millipore kinase panel; type: biochemical; conditions: ATP at Km, read-out: % Control
T1 construct: purchased Millipore KinaseProfiler (kinases); Cerep (receptors and ion channels)

HCK = target: T2, HCK (Homo sapiens, UniProt P08631); assay: Millipore kinase panel; type: biochemical; conditions: ATP at Km, read-out: % Control
T2 construct: purchased Millipore KinaseProfiler (kinases); Cerep (receptors and ion channels)

LYN = target: T3, LYN (Homo sapiens, UniProt P07948); assay: Millipore kinase panel; type: biochemical; conditions: ATP at Km, read-out: % Control
T3 construct: purchased Millipore KinaseProfiler (kinases); Cerep (receptors and ion channels)

MAPK2 = target: T4, MAPK2 (Homo sapiens, UniProt P28482); assay: Millipore kinase panel; type: biochemical; conditions: ATP at Km, read-out: % Control
T4 construct: purchased Millipore KinaseProfiler (kinases); Cerep (receptors and ion channels)

MST1 = target: T5, MST1 (Homo sapiens, UniProt Q13043); assay: Millipore kinase panel; type: biochemical; conditions: read-out: % Control
T5 construct: purchased Millipore KinaseProfiler (kinases); Cerep (receptors and ion channels)

CYP450 2C19 = CYP450 2C19 (Homo sapiens, UniProt P33261); assay: CYP450 inhibition; type: in vitro ADME
CYP450 3A4 = CYP450 3A4 (Homo sapiens, UniProt P08684); assay: CYP450 inhibition; type: in vitro ADME
TCF1 or TCF4 = assay: Endogenous TCF1 and TCF4 levels in COLO205-F1756 clone 4; type: cell-based, human; conditions: COLO205-F1756 clone 4, 350 nM
Description: Supplementary Figure S2. Levels of TCF1 and TCF4 in response to treatment of COLO205-
F1756 clone 4 (an APC-mutant human colorectal cancer cell line engineered to express a
(1 picture or pasted object on this page, not shown here)

V1a (h) = target: T6, V1a (h) (Homo sapiens, UniProt P37288); assay: CEREP binding panel; conditions: agonist radioligand, read-out: % Inhibition of Control Specific Binding
T6 construct: purchased Millipore KinaseProfiler (kinases); Cerep (receptors and ion channels)

CDK2/CYCLINE = target: T7, CDK2/CYCLINE (Homo sapiens, UniProt P24941); assay: Millipore kinase panel; type: biochemical; conditions: read-out: % Control
T7 construct: purchased Millipore KinaseProfiler (kinases); Cerep (receptors and ion channels)

CDK5/P35 = target: T8, CDK5/P35 (Homo sapiens, UniProt Q00535); assay: Millipore kinase panel; type: biochemical; conditions: read-out: % Control
T8 construct: purchased Millipore KinaseProfiler (kinases); Cerep (receptors and ion channels)

CK2ALPHA2 = target: T9, CK2ALPHA2 (Homo sapiens, UniProt P19784); assay: Millipore kinase panel; type: biochemical; conditions: read-out: % Control
T9 construct: purchased Millipore KinaseProfiler (kinases); Cerep (receptors and ion channels)

DDR2 = target: T10, DDR2 (Homo sapiens, UniProt Q16832); assay: Millipore kinase panel; type: biochemical; conditions: read-out: % Control
T10 construct: purchased Millipore KinaseProfiler (kinases); Cerep (receptors and ion channels)

EGFR(L861Q) = target: T11, EGFR(L861Q) (Homo sapiens, UniProt P00533, L861Q); assay: Millipore kinase panel; type: biochemical; conditions: read-out: % Control
T11 construct: purchased Millipore KinaseProfiler (kinases); Cerep (receptors and ion channels)

EPHA4 = target: T12, EPHA4 (Homo sapiens, UniProt P54764); assay: Millipore kinase panel; type: biochemical; conditions: read-out: % Control
T12 construct: purchased Millipore KinaseProfiler (kinases); Cerep (receptors and ion channels)

FLT3(D835Y) = target: T13, FLT3(D835Y) (Homo sapiens, UniProt P36888, D835Y); assay: Millipore kinase panel; type: biochemical; conditions: read-out: % Control
T13 construct: purchased Millipore KinaseProfiler (kinases); Cerep (receptors and ion channels)

CKIT(D816V) = target: T14, CKIT(D816V) (Homo sapiens, UniProt P10721, D816V); assay: Millipore kinase panel; type: biochemical; conditions: read-out: % Control
T14 construct: purchased Millipore KinaseProfiler (kinases); Cerep (receptors and ion channels)

NEK11 = target: T15, NEK11 (Homo sapiens, UniProt Q8NG66); assay: Millipore kinase panel; type: biochemical; conditions: read-out: % Control
T15 construct: purchased Millipore KinaseProfiler (kinases); Cerep (receptors and ion channels)

PI3K BETA = target: T16, PI3K BETA (Homo sapiens, UniProt P42338); assay: Millipore kinase panel; type: biochemical; conditions: read-out: % Control
T16 construct: purchased Millipore KinaseProfiler (kinases); Cerep (receptors and ion channels)

PKBALPHA = target: T17, PKBALPHA (Homo sapiens, UniProt P31749); assay: Millipore kinase panel; type: biochemical; conditions: read-out: % Control
T17 construct: purchased Millipore KinaseProfiler (kinases); Cerep (receptors and ion channels)

PKCBETAI = target: T18, PKCBETAI (Homo sapiens, UniProt P05771); assay: Millipore kinase panel; type: biochemical; conditions: read-out: % Control
T18 construct: purchased Millipore KinaseProfiler (kinases); Cerep (receptors and ion channels)

PKCBII = target: T19, PKCBII (Homo sapiens, UniProt P05771); assay: Millipore kinase panel; type: biochemical; conditions: read-out: % Control
T19 construct: purchased Millipore KinaseProfiler (kinases); Cerep (receptors and ion channels)

PKCEPSILON = target: T20, PKCEPSILON (Homo sapiens, UniProt Q02156); assay: Millipore kinase panel; type: biochemical; conditions: read-out: % Control
T20 construct: purchased Millipore KinaseProfiler (kinases); Cerep (receptors and ion channels)

CK1GAMMA2 = target: T21, CK1GAMMA2 (Homo sapiens, UniProt P78368); assay: Millipore kinase panel; type: biochemical; conditions: read-out: % Control
T21 construct: purchased Millipore KinaseProfiler (kinases); Cerep (receptors and ion channels)

CAMKIIGAMMA = target: T22, CAMKIIGAMMA (Homo sapiens, UniProt Q13555); assay: Millipore kinase panel; type: biochemical; conditions: read-out: % Control
T22 construct: purchased Millipore KinaseProfiler (kinases); Cerep (receptors and ion channels)

CKIT(V560G) = target: T23, CKIT(V560G) (Homo sapiens, UniProt P10721, V560G); assay: Millipore kinase panel; type: biochemical; conditions: read-out: % Control
T23 construct: purchased Millipore KinaseProfiler (kinases); Cerep (receptors and ion channels)

PDGFRALPHA(D842V) = target: T24, PDGFRALPHA(D842V) (Homo sapiens, UniProt P16234, D842V); assay: Millipore kinase panel; type: biochemical; conditions: read-out: % Control
T24 construct: purchased Millipore KinaseProfiler (kinases); Cerep (receptors and ion channels)

CAMKIDELTA = target: T25, CAMKIDELTA (Homo sapiens, UniProt Q8IU85); assay: Millipore kinase panel; type: biochemical; conditions: read-out: % Control
T25 construct: purchased Millipore KinaseProfiler (kinases); Cerep (receptors and ion channels)

PDGFRALPHA(V561D) = target: T26, PDGFRALPHA(V561D) (Homo sapiens, UniProt P16234, V561D); assay: Millipore kinase panel; type: biochemical; conditions: read-out: % Control
T26 construct: purchased Millipore KinaseProfiler (kinases); Cerep (receptors and ion channels)

TAO2 = target: T27, TAO2 (Homo sapiens, UniProt Q9UL54); assay: Millipore kinase panel; type: biochemical; conditions: read-out: % Control
T27 construct: purchased Millipore KinaseProfiler (kinases); Cerep (receptors and ion channels)

CHK2(R145W) = target: T28, CHK2(R145W) (Homo sapiens, UniProt O96017, R145W); assay: Millipore kinase panel; type: biochemical; conditions: read-out: % Control
T28 construct: purchased Millipore KinaseProfiler (kinases); Cerep (receptors and ion channels)

ABL (H396P) = target: T29, ABL (H396P) (Homo sapiens, UniProt P00519, H396P); assay: Millipore kinase panel; type: biochemical; conditions: read-out: % Control
T29 construct: purchased Millipore KinaseProfiler (kinases); Cerep (receptors and ion channels)

ABL(Y253F) = target: T30, ABL(Y253F) (Homo sapiens, UniProt P00519, Y253F); assay: Millipore kinase panel; type: biochemical; conditions: read-out: % Control
T30 construct: purchased Millipore KinaseProfiler (kinases); Cerep (receptors and ion channels)

TIE2(R849W) = target: T31, TIE2(R849W) (Homo sapiens, UniProt Q02763, R849W); assay: Millipore kinase panel; type: biochemical; conditions: read-out: % Control
T31 construct: purchased Millipore KinaseProfiler (kinases); Cerep (receptors and ion channels)

PEK = target: T32, PEK (Homo sapiens, UniProt Q9NZJ5); assay: Millipore kinase panel; type: biochemical; conditions: read-out: % Control
T32 construct: purchased Millipore KinaseProfiler (kinases); Cerep (receptors and ion channels)

CYP450 1A2 = CYP450 1A2 (Homo sapiens, UniProt P05177); assay: CYP450 inhibition

T25 sequence (Q8IU85 whole entry): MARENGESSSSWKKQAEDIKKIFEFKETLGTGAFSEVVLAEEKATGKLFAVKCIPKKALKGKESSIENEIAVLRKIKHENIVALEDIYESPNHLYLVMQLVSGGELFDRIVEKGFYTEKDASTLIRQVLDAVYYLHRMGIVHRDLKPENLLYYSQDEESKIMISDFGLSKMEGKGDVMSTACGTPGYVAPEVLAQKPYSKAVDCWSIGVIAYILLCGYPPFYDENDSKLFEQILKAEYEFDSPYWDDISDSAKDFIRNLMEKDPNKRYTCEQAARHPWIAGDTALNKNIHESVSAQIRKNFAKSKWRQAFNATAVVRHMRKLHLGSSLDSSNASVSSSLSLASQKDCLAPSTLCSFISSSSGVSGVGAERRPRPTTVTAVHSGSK
T28 sequence (O96017 whole entry R145W): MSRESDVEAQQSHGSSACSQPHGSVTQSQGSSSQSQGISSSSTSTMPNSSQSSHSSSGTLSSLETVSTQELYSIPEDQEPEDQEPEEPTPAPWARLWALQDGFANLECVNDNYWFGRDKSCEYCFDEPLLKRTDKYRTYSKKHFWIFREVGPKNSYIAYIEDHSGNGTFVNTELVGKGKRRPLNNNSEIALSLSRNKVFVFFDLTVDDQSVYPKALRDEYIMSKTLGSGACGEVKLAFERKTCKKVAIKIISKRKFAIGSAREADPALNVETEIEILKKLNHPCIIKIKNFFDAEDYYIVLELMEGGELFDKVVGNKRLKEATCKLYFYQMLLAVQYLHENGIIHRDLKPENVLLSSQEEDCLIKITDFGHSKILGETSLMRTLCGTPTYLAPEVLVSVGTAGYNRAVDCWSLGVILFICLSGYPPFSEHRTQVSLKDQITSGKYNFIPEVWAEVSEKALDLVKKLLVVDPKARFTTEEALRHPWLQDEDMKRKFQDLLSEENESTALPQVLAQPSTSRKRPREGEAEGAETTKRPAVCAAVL
CYP450 2C19, sequence (P33261 whole entry): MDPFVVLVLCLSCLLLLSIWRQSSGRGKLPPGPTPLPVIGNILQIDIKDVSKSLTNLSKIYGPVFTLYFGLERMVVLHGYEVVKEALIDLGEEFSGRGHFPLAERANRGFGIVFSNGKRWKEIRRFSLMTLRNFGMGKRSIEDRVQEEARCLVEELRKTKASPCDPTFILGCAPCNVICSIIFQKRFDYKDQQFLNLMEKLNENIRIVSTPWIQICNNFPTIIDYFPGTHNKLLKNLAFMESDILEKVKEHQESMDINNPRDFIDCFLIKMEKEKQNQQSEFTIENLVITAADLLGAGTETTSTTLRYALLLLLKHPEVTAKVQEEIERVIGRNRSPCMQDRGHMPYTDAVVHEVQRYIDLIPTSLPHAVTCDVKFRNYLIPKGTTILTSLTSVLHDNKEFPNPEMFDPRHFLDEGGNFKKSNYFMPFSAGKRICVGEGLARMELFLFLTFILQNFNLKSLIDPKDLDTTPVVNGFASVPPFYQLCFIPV
T15 sequence (Q8NG66 whole entry): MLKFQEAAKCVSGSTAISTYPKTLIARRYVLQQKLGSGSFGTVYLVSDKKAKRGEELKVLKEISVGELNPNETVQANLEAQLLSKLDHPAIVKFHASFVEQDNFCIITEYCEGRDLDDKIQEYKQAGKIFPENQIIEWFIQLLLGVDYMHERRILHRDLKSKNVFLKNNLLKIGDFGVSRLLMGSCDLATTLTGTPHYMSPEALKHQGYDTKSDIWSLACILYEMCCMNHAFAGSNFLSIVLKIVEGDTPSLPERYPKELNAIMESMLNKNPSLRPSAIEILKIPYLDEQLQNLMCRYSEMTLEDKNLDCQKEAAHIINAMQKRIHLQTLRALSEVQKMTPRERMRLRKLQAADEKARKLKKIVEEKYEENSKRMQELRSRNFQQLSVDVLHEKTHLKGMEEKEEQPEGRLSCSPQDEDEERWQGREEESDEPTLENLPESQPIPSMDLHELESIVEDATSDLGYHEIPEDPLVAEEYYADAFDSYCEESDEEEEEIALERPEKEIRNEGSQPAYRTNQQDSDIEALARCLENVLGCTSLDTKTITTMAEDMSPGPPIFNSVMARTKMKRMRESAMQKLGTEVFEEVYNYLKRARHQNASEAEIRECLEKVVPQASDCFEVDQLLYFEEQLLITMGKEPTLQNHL
T12 sequence (P54764 20-986): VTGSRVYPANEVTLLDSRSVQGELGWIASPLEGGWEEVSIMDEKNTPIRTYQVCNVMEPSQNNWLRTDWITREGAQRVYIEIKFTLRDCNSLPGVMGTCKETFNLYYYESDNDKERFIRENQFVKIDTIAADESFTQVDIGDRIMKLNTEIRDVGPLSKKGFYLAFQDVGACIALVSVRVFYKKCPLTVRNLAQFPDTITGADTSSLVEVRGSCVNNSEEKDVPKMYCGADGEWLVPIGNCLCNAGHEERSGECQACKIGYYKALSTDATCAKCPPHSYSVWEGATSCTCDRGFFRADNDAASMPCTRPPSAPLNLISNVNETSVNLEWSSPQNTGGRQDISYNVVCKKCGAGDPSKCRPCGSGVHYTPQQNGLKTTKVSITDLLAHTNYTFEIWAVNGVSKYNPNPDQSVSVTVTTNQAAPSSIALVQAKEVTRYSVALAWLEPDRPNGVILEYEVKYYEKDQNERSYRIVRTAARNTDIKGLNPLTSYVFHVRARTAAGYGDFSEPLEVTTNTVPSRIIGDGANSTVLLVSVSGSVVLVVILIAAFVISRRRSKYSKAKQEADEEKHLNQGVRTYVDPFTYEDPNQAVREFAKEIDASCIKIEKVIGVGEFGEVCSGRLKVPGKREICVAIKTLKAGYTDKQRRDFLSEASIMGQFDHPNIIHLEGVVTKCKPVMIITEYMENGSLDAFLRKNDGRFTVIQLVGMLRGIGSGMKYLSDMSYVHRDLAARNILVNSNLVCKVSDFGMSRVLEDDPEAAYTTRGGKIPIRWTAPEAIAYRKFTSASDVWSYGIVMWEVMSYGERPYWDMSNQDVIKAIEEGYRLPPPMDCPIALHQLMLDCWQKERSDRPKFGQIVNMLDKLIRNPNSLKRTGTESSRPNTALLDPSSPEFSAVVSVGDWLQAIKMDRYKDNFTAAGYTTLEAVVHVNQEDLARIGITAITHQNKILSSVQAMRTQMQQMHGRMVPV
T21 sequence (P78368 whole entry): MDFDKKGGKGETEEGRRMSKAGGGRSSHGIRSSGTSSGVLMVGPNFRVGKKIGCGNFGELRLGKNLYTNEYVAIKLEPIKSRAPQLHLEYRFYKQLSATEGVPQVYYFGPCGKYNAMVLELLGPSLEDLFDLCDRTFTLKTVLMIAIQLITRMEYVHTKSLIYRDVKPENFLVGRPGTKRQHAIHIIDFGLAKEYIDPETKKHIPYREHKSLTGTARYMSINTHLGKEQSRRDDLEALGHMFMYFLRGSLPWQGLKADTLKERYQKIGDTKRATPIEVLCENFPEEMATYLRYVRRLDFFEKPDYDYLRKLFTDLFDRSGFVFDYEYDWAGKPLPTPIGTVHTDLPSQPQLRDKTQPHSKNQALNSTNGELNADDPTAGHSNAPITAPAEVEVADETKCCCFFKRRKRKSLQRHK
T3 sequence (P07948 whole entry): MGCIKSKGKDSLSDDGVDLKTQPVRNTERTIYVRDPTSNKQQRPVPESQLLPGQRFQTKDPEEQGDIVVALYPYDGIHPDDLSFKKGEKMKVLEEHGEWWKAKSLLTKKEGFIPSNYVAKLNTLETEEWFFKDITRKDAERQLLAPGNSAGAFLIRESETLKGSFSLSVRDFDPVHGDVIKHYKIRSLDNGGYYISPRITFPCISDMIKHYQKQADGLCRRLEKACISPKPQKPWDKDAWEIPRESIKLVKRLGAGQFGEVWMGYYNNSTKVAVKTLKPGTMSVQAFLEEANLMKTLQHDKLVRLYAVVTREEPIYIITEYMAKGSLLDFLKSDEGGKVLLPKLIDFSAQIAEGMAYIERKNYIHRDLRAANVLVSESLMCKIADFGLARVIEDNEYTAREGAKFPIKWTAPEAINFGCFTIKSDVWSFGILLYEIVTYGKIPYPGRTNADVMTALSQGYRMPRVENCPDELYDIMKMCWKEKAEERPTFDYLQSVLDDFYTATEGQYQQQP
T9 sequence (P19784 whole entry): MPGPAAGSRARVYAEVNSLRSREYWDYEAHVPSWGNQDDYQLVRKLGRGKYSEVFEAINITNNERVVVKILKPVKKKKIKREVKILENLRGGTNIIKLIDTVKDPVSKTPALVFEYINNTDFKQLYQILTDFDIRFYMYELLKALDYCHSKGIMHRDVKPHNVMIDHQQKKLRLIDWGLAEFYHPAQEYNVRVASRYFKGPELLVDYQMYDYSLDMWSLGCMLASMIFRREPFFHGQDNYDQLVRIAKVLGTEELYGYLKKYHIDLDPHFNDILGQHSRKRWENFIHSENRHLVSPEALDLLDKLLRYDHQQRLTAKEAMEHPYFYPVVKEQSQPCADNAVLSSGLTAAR
T18 sequence (P05771 whole entry): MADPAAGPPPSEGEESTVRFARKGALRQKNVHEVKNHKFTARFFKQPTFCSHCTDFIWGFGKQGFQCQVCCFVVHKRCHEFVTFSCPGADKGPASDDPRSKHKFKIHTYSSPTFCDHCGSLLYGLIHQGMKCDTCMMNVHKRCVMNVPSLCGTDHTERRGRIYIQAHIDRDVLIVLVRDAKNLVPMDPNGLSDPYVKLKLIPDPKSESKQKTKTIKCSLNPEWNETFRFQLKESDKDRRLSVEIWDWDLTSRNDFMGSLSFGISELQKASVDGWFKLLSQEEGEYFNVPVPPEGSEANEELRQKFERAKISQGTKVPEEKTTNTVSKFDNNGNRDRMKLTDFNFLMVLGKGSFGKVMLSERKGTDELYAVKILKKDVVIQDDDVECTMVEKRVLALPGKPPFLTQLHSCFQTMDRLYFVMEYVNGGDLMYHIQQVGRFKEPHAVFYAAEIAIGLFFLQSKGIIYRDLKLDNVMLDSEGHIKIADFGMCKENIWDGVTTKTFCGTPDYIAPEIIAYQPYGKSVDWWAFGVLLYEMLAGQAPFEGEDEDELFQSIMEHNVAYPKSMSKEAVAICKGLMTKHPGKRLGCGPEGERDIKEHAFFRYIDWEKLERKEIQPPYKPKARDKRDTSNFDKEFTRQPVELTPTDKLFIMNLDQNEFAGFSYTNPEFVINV

SMILES: O=C1NCCC12CCN(c1c(Cl)cncc1-c1ccc(N3CCOCC3)cc1)CC2 [Compound 44, 8-(3-Chloro-5-(4-morpholin-4-ylphenyl)pyridin-4-yl)-2,8-diazaspiro[4.5]decan-1-one]
- microsomal CLint at 1 μM (Clint determination [1]): 41 µL/min/mg
- microsomal CLint at 1 μM (Clint determination [2]): 115 µL/min/mg
- % Inhibition of Control Specific Binding (Cl- channel (GABA-gated)): 14%
- remaining activity at 1 µM (ARG): -12%
- remaining activity at 1 µM (HCK): 3%
- remaining activity at 1 µM (LYN): 31%
- remaining activity at 1 µM (MAPK2): 10%
- remaining activity at 1 µM (MST1): 14%

SMILES: Cn1cc(-c2ccc(-c3cncc(Cl)c3N3CCC4(CCNC4=O)CC3)cc2)cn1 [Compound 74, 8-(3-Chloro-5-(4-(1-methyl-1H-pyrazol-4-yl)phenyl)pyridin-4-yl)-2,8-diazaspiro[4.5]decan-1-one]
- IC50 (CYP450 2C19): 8 µM
- IC50 (CYP450 3A4): 11.4 µM
- effect on endogenous levels of TCF1 or TCF4 (TCF1 or TCF4): did not affect endogenous levels of TCF1 or TCF4
- inhibition at 10 µM (V1a (h)): -7%
- remaining activity at 1 µM (CDK2/CYCLINE): -14%
- remaining activity at 1 µM (CDK5/P35): -16%
- remaining activity at 1 µM (CK2ALPHA2): -1%
- remaining activity at 1 µM (DDR2): 5%
- remaining activity at 1 µM (EGFR(L861Q)): 0%
- remaining activity at 1 µM (EPHA4): -26%
- remaining activity at 1 µM (FLT3(D835Y)): -11%
- remaining activity at 1 µM (CKIT(D816V)): 7%
- remaining activity at 1 µM (NEK11): 7%
- remaining activity at 1 µM (PI3K BETA): 0%
- remaining activity at 1 µM (PKBALPHA): 2%
- remaining activity at 1 µM (PKCBETAI): -23%
- remaining activity at 1 µM (PKCBII): -3%
- remaining activity at 1 µM (PKCEPSILON): -22%
- remaining activity at 1 µM (CK1GAMMA2): 10%
- remaining activity at 1 µM (CAMKIIGAMMA): 1%
- remaining activity at 1 µM (CKIT(V560G)): -5%
- remaining activity at 1 µM (PDGFRALPHA(D842V)): -4%
- remaining activity at 1 µM (CAMKIDELTA): -4%
- remaining activity at 1 µM (PDGFRALPHA(V561D)): 6%
- remaining activity at 1 µM (TAO2): -15%
- remaining activity at 1 µM (CHK2(R145W)): 3%
- remaining activity at 1 µM (ABL (H396P)): 17%
- remaining activity at 1 µM (ABL(Y253F)): -11%
- remaining activity at 1 µM (TIE2(R849W)): -6%
- remaining activity at 1 µM (PEK): 8%
- IC50 (CYP450 1A2): > 20 µM

Source: publication PMC4767141, “Discovery of Potent, Orally Bioavailable, Small-Molecule Inhibitors of WNT Signaling from a Cell-Based Pathway Screen” (Journal of Medicinal Chemistry, 2015)
